The assay concerns respiratory viruses (Corona Virus on MRC5 Cells, Influenza Virus A on MDCK Cells, Respiratory Syncytial Virus on HEp2 cells, Adenovirus serotype 5 on A549 …). As to the kind of experiment: Respiratory viruses: virus grown in the presence of compound, infectious virus titrated by TCID50. The assay is classed as cell-based. As to conditions: qualitative statement; compound tested at 10 μM, 2 μM, 0.4 μM and 0.08 μM. On the procedure: The activities of compounds of the invention were determined for the following viruses using the protocol below:
Corona Virus on MRC5 Cells
Influenza Virus A on MDCK Cells
Respiratory Syncytial Virus on HEp2 cells
Adenovirus serotype 5 on A549 cells
Human Rhinovirus on H1Hela Cells
Herpes Simplex Virus 1 on Vero cells
Virus was grown in the presence of four dilutions (10 μM, 2 μM, 0.4 μM and 0.08 μM) of the chemical compound tested with two controls using standard methods and materials for the relevant virus. The infected cell extract was collected using known methods, and the infectious virus concentration was determined using standard techniques.
Each well was titrated by TCID50. Four serial dilutions in quadruplicate required to determine the titer of each well. To assay 36 replicates as directed, one hundred eight (108) 96-well plates will be required. Each drug was tested at four dilutions against one virus will require TCID50 titers of 18 sample wells.

`Cc1cc(N(C)C)cc2[s+]c3cc(N4CCN(C)CC4)cc(C)c3nc12.[I-]` [3-(Dimethylamino)-1,9-dimethyl-7-(4-methylpiperazin-1-yl)phenothiazin-5-ium iodide]: the “activity across all of the respiratory viruses tested (pan-respiratory anti-viral activity)” value is given as “surprisingly strong activity across all of the respiratory viruses tested”.
